Reference: ChEMBL document CHEMBL4184305, “Inhibition of histone lysine methyltransferases G9a and GLP by ejection of structural Zn(II)” (Bioorg Med Chem Lett, 2018)
Activity calls are given as the source filed them. The calls are words filed in the database; no cut-off is given here.

Assays:
[1] = biological target: T1, Histone-lysine N-methyltransferase EHMT1 (Homo sapiens) (UniProt Q9H9B1); assay: Inhibition of wild type recombinant human histone lysine methyltransferase GLP (951 to 1235 residues) expressed in Escherichia coli Rosetta BL21 DE3 PlysS assessed as zinc ions ejection from Cys4-Zn finger at >50 uM after 1 hr by circular dichroism analysis
T1 sequence (whole entry): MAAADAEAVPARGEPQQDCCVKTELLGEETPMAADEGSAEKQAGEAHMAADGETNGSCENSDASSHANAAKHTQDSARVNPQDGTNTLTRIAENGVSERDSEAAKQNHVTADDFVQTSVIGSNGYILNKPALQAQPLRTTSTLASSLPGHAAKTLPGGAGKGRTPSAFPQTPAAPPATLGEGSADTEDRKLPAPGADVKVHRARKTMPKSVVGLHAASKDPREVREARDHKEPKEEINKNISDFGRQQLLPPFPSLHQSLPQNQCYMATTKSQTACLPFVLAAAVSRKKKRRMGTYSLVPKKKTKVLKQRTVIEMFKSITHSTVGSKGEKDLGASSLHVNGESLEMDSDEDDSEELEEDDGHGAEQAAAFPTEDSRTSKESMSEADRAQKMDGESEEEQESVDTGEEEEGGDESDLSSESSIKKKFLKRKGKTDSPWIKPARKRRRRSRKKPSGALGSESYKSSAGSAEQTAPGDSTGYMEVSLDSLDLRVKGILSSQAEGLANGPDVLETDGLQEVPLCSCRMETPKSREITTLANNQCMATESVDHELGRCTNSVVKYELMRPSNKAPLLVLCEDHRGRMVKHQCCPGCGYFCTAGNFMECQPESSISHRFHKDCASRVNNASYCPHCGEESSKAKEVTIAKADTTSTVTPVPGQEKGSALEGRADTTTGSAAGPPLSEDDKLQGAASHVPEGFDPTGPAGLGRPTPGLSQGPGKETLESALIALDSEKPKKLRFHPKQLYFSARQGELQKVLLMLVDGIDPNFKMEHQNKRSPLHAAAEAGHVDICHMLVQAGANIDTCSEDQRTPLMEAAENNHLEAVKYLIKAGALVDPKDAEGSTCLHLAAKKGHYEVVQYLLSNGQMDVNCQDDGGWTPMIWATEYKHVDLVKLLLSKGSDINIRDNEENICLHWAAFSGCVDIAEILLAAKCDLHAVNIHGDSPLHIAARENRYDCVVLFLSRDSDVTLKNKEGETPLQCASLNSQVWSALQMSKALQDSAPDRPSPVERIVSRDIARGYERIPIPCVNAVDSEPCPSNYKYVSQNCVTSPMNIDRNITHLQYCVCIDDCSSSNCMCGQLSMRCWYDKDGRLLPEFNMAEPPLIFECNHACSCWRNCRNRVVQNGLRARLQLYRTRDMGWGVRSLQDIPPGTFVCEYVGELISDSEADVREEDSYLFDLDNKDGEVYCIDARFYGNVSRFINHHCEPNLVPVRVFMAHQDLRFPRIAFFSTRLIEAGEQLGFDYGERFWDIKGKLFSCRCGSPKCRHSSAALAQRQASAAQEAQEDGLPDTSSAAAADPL

[2] = biological target: T1, Histone-lysine N-methyltransferase EHMT1 (Homo sapiens); assay: Inhibition of wild type recombinant human histone lysine methyltransferase GLP (951 to 1235 residues) expressed in Escherichia coli Rosetta BL21 DE3 PlysS assessed as zinc ions ejection from Cys4-Zn finger at 2.5 to 100 uM after 500 to 3500 secs by FluoZin-3 based fluorescence assay
[3] = biological target: T2, Histone-lysine N-methyltransferase EHMT2 (Homo sapiens) (UniProt Q96KQ7); assay: Inhibition of wild type recombinant human histone lysine methyltransferase G9a (913 to 1193 residues) expressed in Escherichia coli Rosetta BL21 DE3 PlysS assessed as zinc ions ejection from Cys4-Zn finger at 2.5 to 100 uM measured up to 1 min by FluoZin-3 based fluorescence assay
T2 sequence (whole entry): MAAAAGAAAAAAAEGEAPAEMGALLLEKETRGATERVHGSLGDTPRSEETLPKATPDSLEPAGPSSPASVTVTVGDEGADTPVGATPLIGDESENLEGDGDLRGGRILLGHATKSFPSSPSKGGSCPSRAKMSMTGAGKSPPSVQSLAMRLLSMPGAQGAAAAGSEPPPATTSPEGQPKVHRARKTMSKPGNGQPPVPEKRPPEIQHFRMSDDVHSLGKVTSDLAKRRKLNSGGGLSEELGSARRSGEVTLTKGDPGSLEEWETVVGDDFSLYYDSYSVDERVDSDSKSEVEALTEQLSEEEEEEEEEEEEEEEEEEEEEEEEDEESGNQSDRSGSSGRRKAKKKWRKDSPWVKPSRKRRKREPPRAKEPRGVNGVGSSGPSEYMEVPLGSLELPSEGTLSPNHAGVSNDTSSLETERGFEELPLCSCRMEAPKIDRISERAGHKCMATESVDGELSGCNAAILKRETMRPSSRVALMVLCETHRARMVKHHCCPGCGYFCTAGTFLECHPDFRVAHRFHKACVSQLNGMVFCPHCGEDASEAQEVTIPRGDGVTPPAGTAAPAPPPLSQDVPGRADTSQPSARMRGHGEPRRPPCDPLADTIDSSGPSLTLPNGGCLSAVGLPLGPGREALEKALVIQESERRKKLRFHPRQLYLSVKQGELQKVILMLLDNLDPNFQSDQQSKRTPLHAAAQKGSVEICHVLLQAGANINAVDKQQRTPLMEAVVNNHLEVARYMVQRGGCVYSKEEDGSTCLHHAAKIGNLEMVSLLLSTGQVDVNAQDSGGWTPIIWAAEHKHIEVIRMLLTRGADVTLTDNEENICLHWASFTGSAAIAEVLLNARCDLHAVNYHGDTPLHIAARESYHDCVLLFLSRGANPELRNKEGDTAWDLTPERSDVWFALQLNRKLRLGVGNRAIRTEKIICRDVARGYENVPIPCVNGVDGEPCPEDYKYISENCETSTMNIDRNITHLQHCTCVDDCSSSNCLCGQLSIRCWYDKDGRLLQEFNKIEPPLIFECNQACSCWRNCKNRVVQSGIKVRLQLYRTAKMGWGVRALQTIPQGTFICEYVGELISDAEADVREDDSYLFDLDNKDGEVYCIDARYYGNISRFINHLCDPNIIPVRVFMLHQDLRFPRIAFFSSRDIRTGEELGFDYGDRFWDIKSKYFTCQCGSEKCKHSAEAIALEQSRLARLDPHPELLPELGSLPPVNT

[4] = biological target: T1, Histone-lysine N-methyltransferase EHMT1 (Homo sapiens); assay: Inhibition of wild type recombinant human histone lysine methyltransferase GLP (951 to 1235 residues) expressed in Escherichia coli Rosetta BL21 DE3 PlysS assessed as zinc ions ejection from Cys4-Zn finger at 2.5 to 100 uM measured up to 1 min by FluoZin-3 based fluorescence assay
[5] = biological target: T2, Histone-lysine N-methyltransferase EHMT2 (Homo sapiens); assay: Inhibition of wild type recombinant human histone lysine methyltransferase G9a (913 to 1193 residues) expressed in Escherichia coli Rosetta BL21 DE3 PlysS assessed as zinc ions ejection from Cys4-Zn finger at >25 uM after 1 hr by circular dichroism analysis

Compound | inhibition [1] | inhibition [2] | inhibition [3] | inhibition [4] | inhibition [5]
CCN(CC)C(=S)SSC(=S)N(CC)CC | Active | Active |  |  | 
O=c1c2ccccc2[se]n1-c1ccccc1 [EBSELEN] |  |  | Active | Active | Active
